Measurements reported in PubChem BioAssay AID248 (DTP/NCI, 2004).
“And” between values parts separate entries of the source, which are not always exact repeats. Equal entries are not always repeated. Toxic doses and inconclusive results are not listed. Cut-off read from the data, not from the text of the source: active = T/C of 150% or more; inactive = T/C below 125%.

System: L1210 leukemia ip in BDF1 mice, survival T/C
Test: NCI In Vivo Anticancer Drug Screen. Data for tumor model L1210 Leukemia (intraperitoneal) in B6D2F1 (BDF1) mice
Details: endpoint: mean survival time, higher = longer survival
Outline: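 Read-out is survival time, reported as the treated-group measurement over the vehicle-control measurement.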

[1] = dose: 100.0 mg/kg/injection, schedule: Q01DX001 (ip), vehicle: saline
[2] = dose: 200.0 mg/kg/injection, schedule: Q01DX001 (ip), vehicle: saline
[3] = dose: 400.0 mg/kg/injection, schedule: Q01DX001 (ip), vehicle: saline
[4] = dose: 12.5 mg/kg/injection, schedule: Q01DX009 (ip), vehicle: saline
[5] = dose: 25.0 mg/kg/injection, schedule: Q01DX009 (ip), vehicle: saline
[6] = dose: 25.0 mg/kg/injection, schedule: Q04DX003 (ip), vehicle: saline
[7] = dose: 50.0 mg/kg/injection, schedule: Q01DX009 (ip), vehicle: saline
[8] = dose: 50.0 mg/kg/injection, schedule: Q04DX003 (ip), vehicle: saline
[9] = dose: 6.25 mg/kg/injection, schedule: Q04DX003 (ip), vehicle: saline
[10] = dose: 12.5 mg/kg/injection, schedule: Q04DX003 (ip), vehicle: saline
[11] = dose: 100.0 mg/kg/injection, schedule: Q01DX001 (ip), vehicle: carboxymethylcellulose (CMC)
[12] = dose: 200.0 mg/kg/injection, schedule: Q01DX001 (ip), vehicle: carboxymethylcellulose (CMC)
[13] = dose: 400.0 mg/kg/injection, schedule: Q01DX001 (ip), vehicle: carboxymethylcellulose (CMC)

Measured: T/C

CCC1(c2ccccc2)C2C(=O)NC(=O)C1C(=O)NC2=O (stereo unspecified)
inactive: [1] 98 % of control | [2] 95 % of control | [3] 101 % of control

CC(=O)N1C(C)C1(c1ccccc1)[n+]1ccccc1 (stereo unspecified)
inactive: dose: 12.0 mg/kg/injection, schedule: Q04DX003 (ip), vehicle: saline 98 % of control | [4] 101 % of control | [5] 92 % of control | [6] 88 % of control | [7] 101 % of control | [8] 104 % of control

CCCCCc1nc2c(c3c1CCCC3)CCCC2
inactive: dose: 75.0 mg/kg/injection, schedule: Q01DX001 (ip), vehicle: other 102 % of control | dose: 150.0 mg/kg/injection, schedule: Q01DX001 (ip), vehicle: other 96 % of control

CC(=O)C[n+]1ccccc1Br
inactive: dose: 62.0 mg/kg/injection, schedule: Q01DX015 (ip), vehicle: water 87 % of control | dose: 125.0 mg/kg/injection, schedule: Q01DX015 (ip), vehicle: water 100 % of control

CCCSP(C(C)C)C(C)C
inactive: dose: 12.5 mg/kg/injection, schedule: Q04DX003 (ip), vehicle: saline with Tween-80 94 % of control | dose: 25.0 mg/kg/injection, schedule: Q04DX003 (ip), vehicle: saline with Tween-80 94 % of control | dose: 50.0 mg/kg/injection, schedule: Q04DX003 (ip), vehicle: saline with Tween-80 91 % of control

CCOC1OC(=O)c2cccc3ccc4cccc1c4c23 (stereo unspecified)
inactive: dose: 100.0 mg/kg/injection, schedule: Q04DX002 (ip), vehicle: Klucel (hydroxypropylcellulose) (HPC) 90 % of control | dose: 200.0 mg/kg/injection, schedule: Q04DX002 (ip), vehicle: Klucel (hydroxypropylcellulose) (HPC) 86 % of control | dose: 400.0 mg/kg/injection, schedule: Q04DX002 (ip), vehicle: Klucel (hydroxypropylcellulose) (HPC) 93 % of control

N=C(N)/[N+]([O-])=N/O
inactive: dose: 8.0 mg/kg/injection, schedule: Q01DX001 (ip), vehicle: saline + alcohol 97 % of control | dose: 12.0 mg/kg/injection, schedule: Q01DX001 (ip), vehicle: saline + alcohol 100 % of control | dose: 18.0 mg/kg/injection, schedule: Q01DX001 (ip), vehicle: saline + alcohol 111 % of control | dose: 26.0 mg/kg/injection, schedule: Q01DX001 (ip), vehicle: saline + alcohol 98 % of control | dose: 40.0 mg/kg/injection, schedule: Q01DX001 (ip), vehicle: saline + alcohol 103 % of control | dose: 60.0 mg/kg/injection, schedule: Q01DX001 (ip), vehicle: saline + alcohol 95 % of control | dose: 90.0 mg/kg/injection, schedule: Q01DX001 (ip), vehicle: saline + alcohol 101 % of control | dose: 135.0 mg/kg/injection, schedule: Q01DX001 (ip), vehicle: saline + alcohol 100 % of control | dose: 200.0 mg/kg/injection, schedule: Q01DX001 (ip), vehicle: saline + alcohol 108 % of control

CCCSC1=C(N2CC2)C(=O)C(SCCC)=C(N2CC2)C1=O
inactive: [9] 98 % of control | [10] 104 % of control | [6] 97 % of control | [8] 103 % of control | dose: 100.0 mg/kg/injection, schedule: Q04DX003 (ip), vehicle: saline 108 % of control | dose: 200.0 mg/kg/injection, schedule: Q04DX003 (ip), vehicle: saline 116 % of control

CC(=O)Nc1ccc(/C=N\Nc2ccccn2)cc1
inactive: [1] 89 % of control | [2] 100 % of control | [3] 93 % of control

CCN(CCCl)c1ccc(/C=C/C2=[N+](C)c3ccccc3C2(C)C)c(C)c1
inactive: dose: 0.78 mg/kg/injection, schedule: Q01DX009 (ip), vehicle: saline 106 % of control | dose: 1.56 mg/kg/injection, schedule: Q01DX009 (ip), vehicle: saline 97 % of control | dose: 3.13 mg/kg/injection, schedule: Q01DX009 (ip), vehicle: saline 112 % of control | [9] 96 % of control | [10] 86 % of control

CC/C(=C(\CC)c1ccc(OCCN(CC)CC)cc1)c1ccc(OCCN(CC)CC)cc1
inactive: dose: 5.0 mg/kg/injection, schedule: Q01DX001 (ip), vehicle: carboxymethylcellulose (CMC) 94 % of control | dose: 10.0 mg/kg/injection, schedule: Q01DX001 (ip), vehicle: carboxymethylcellulose (CMC) 96 % of control | dose: 40.0 mg/kg/injection, schedule: Q01DX001 (ip), vehicle: carboxymethylcellulose (CMC) 94 % of control | [11] 106 % of control

c1ccc(NC2CCCCC2)cc1
inactive: dose: 50.0 mg/kg/injection, schedule: Q01DX003 (ip), vehicle: Klucel (hydroxypropylcellulose) (HPC) 103 % of control | dose: 100.0 mg/kg/injection, schedule: Q01DX003 (ip), vehicle: Klucel (hydroxypropylcellulose) (HPC) 101 % of control | dose: 200.0 mg/kg/injection, schedule: Q01DX003 (ip), vehicle: Klucel (hydroxypropylcellulose) (HPC) 101 % of control

OC(c1ccccc1)C(c1ccccc1)N1CC1 (stereo unspecified)
inactive: dose: 75.0 mg/kg/injection, schedule: Q01DX001 (ip), vehicle: carboxymethylcellulose (CMC) 93 % of control | dose: 150.0 mg/kg/injection, schedule: Q01DX001 (ip), vehicle: carboxymethylcellulose (CMC) 92 % of control | dose: 300.0 mg/kg/injection, schedule: Q01DX001 (ip), vehicle: carboxymethylcellulose (CMC) 92 % of control

CC(C)(C)S(=O)(=O)C(C)(C)C
inactive: dose: 100.0 mg/kg/injection, schedule: Q01DX009 (ip), vehicle: saline with Tween-80 93 % of control | dose: 200.0 mg/kg/injection, schedule: Q01DX009 (ip), vehicle: saline with Tween-80 90 % of control | dose: 400.0 mg/kg/injection, schedule: Q01DX009 (ip), vehicle: saline with Tween-80 88 % of control

CC(=O)c1cccc(OC(=O)Oc2cccc(C(C)=O)c2)c1
inactive: [11] 95 % of control | [12] 90 % of control | [13] 95 % of control

CCC(CC)C(=O)OCC(C)(C)C
inactive: [11] 96 % of control | [12] 104 % of control | [13] 96 % of control

COc1cc(C(=O)O)c(Cc2ccccc2)c(OC)c1O
inactive: dose: 5.0 mg/kg/injection, schedule: Q01DX001 (ip), vehicle: saline 95 % of control | dose: 10.0 mg/kg/injection, schedule: Q01DX001 (ip), vehicle: saline 97 % of control | dose: 20.0 mg/kg/injection, schedule: Q01DX001 (ip), vehicle: saline 95 % of control | dose: 40.0 mg/kg/injection, schedule: Q01DX001 (ip), vehicle: saline 95 % of control | dose: 80.0 mg/kg/injection, schedule: Q01DX001 (ip), vehicle: saline 95 % of control

O=C(O)CS(=O)(=O)C(c1ccccc1)c1ccccc1
inactive: [1] 94 % of control | [2] 97 % of control | [3] 96 % of control

O=C1c2ccccc2C2C(=O)c3ccccc3C12 (stereo unspecified)
inactive: dose: 100.0 mg/kg/injection, schedule: Q04DX003 (ip), vehicle: saline with Tween-80 98 % of control | dose: 200.0 mg/kg/injection, schedule: Q04DX003 (ip), vehicle: saline with Tween-80 96 % of control | dose: 400.0 mg/kg/injection, schedule: Q04DX003 (ip), vehicle: saline with Tween-80 95 % of control

COC(=O)C1=CCCN(C)C1
inactive: dose: 3.12 mg/kg/injection, schedule: Q01DX009 (ip), vehicle: saline 103 % of control | dose: 6.25 mg/kg/injection, schedule: Q01DX009 (ip), vehicle: saline 101 % of control | [4] 98 % of control | [10] 93 % of control | dose: 20.0 mg/kg/injection, schedule: Q01DX009 (ip), vehicle: saline 93 % of control | dose: 20.0 mg/kg/injection, schedule: Q04DX003 (ip), vehicle: saline 97 % of control | [5] 98 % of control | [6] 95 % of control and 94 % of control | dose: 40.0 mg/kg/injection, schedule: Q01DX009 (ip), vehicle: saline 92 % of control | dose: 40.0 mg/kg/injection, schedule: Q04DX003 (ip), vehicle: saline 94 % of control | [7] 106 % of control | [8] 103 % of control and 94 % of control | dose: 80.0 mg/kg/injection, schedule: Q01DX009 (ip), vehicle: saline 90 % of control | dose: 80.0 mg/kg/injection, schedule: Q04DX003 (ip), vehicle: saline 100 % of control
